In ChEMBL document CHEMBL1154991, “Activity-guided isolation of antioxidative constituents of Cotinus coggygria” (J Nat Prod, 2000):
Values after ≈ are worked out from the molar mass of the structure shown.

System: Radical scavenging activity
Test: Antioxidant activity assessed as DPPH radical scavenging activity after 30 mins
Type: functional

IC50	Compound
16.1 µg/mL (≈ 59.6 µM)	O=C1/C(=C/c2ccc(O)c(O)c2)Oc2cc(O)ccc21 [SULFURETIN]
18.7 µg/mL (≈ 43.2 µM)	O=C1/C(=C/c2ccc(O)c(O)c2)Oc2cc(O[C@@H]3O[C@H](CO)[C@@H](O)[C@H](O)[C@H]3O)ccc21 [SULFUREIN]
18.6 µg/mL (≈ 101 µM)	COC(=O)c1cc(O)c(O)c(O)c1 [GALLIC ACID METHYL ESTER]

Continued, molecule first:

Compound	IC50
COc1ccc(O)c(C(C)(C)C)c1.COc1ccc(O)cc1C(C)(C)C [BUTYLATED HYDROXYANISOLE]	21 µg/mL
O=C1/C(=C(/C(=C2\Oc3cc(O)ccc3C2=O)c2ccc(O)c(O)c2)c2ccc(O)c(O)c2)Oc2cc(O)ccc21	9.7 µg/mL (≈ 18 µM)
O=C(O)c1cc(O)c(O)c(O)c1 [GALLIC ACID]	10 µg/mL (≈ 58.8 µM)
O=C1O[C@H]([C@@H](O)CO)C(O)=C1O [ASCORBIC ACID]	22 µg/mL (≈ 125 µM)
O=C(OC[C@H]1O[C@@H](OC(=O)c2cc(O)c(O)c(O)c2)[C@H](OC(=O)c2cc(O)c(O)c(O)c2)[C@@H](OC(=O)c2cc(O)c(O)c(O)c2)[C@@H]1OC(=O)c1cc(O)c(O)c(O)c1)c1cc(O)c(O)c(O)c1 [PENTAGALLOYL GLUCOSE]	12.6 µg/mL (≈ 13.4 µM)
